Measurements reported in patent US11773127B2, “Compounds and methods for treating bacterial infections” (Washington University, priority 2017, dated 2023).
Like-named read-outs stand apart in the source and are kept apart here.

Assays:
FmlHLD [1] = target: T1, FmlHLD (Escherichia coli, UniProt P77588); assay: biochemical; format: binding, E. coli; conditions: for inhibition of FmlHLD binding to ds-BSM, in words: soluble compound at 1 mM; for PI100 (percent inhibition): galactoside at 100 μM, 100 µM; for % Inhibition at [μM] [100]: compound at 100 μM
T1 construct: 6xHis (C); made in house; host or cells: E. coli C600, periplasm, pTRC99a
T1 sequence (P77588 25-182): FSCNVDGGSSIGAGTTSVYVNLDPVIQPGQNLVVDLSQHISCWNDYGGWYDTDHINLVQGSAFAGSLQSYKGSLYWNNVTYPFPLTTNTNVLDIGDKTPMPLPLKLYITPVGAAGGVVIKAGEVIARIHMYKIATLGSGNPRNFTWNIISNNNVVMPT
Procedure, shortened: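 Sialidase-treated bovine submaxillary mucin (ds-BSM) coated wells, BSA-blocked, then biotinylated FmlH^LD (20 μg/mL) with or without compound for 1 h at room temperature. Bound lectin detected by streptavidin-HRP/TMB, A450.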

FmlHLD [2] = target: T1, FmlHLD; assay: biochemical; format: binding, E. coli
Excerpt: Bio-layer interferometry (BLI) was used to quantitate the binding affinity of select galactosides to FmlH.
Thereafter, pins were dipped in PBS for 120 s and transferred to protein samples (varying concentration of FmlHLD or fixed concentration of FmlHLD with varying concentration of galactoside compounds) for association for 300-600 s.

[3] = read-out: PI1 (percent inhibition), galactoside at 1 μM, mean with standard error of the mean
[4] = read-out: PI10 (percent inhibition), galactoside at 10 μM, mean with standard error of the mean
[5] = read-out: PI100 (percent inhibition), galactoside at 100 μM, mean with standard error of the mean
[6] = Kd (μM), inhibitory constants, fixed FmlHLD, varying galactoside in solution, immobilized ser-TF
[7] = read-out: % Inhibition at [μM] [1], compound at 1 μM, inhibition of FmlHLD binding to ds-BSM
[8] = read-out: % Inhibition at [μM] [10], compound at 10 μM, inhibition of FmlHLD binding to ds-BSM
[9] = read-out: % Inhibition at [μM] [100], compound at 100 μM, inhibition of FmlHLD binding to ds-BSM
[10] = IC50, inhibition of FmlHLD binding to ds-BSM
[11] = read-out: % Inhibition at [μM] [0.1], compound at 0.1 μM (100 nM), inhibition of FmlHLD binding to ds-BSM
[12] = read-out: PI (0.1) (average percent inhibition), compound at 100 nM, Table 4
[13] = read-out: PI(1) (average percent inhibition), compound at 1 μM, Table 4
[14] = mean with standard error of the mean
[15] = inhibition of FmlHLD binding to ds-BSM

CC(=O)N[C@H]1[C@H](Oc2ccccc2[N+](=O)[O-])O[C@H](CO)[C@H](O)[C@@H]1O [Compound 4β-NAc]
PI10 (percent inhibition) (FmlHLD [1]; galactoside at 10 μM, mean with standard error of the mean, 10 µM): 87.2 ± 1.7%
inhibition at 1 µM (FmlHLD [1]; [3]): 28.6 ± 4.5%
inhibition at 10 µM (FmlHLD [1]; [4]): 87%
inhibition at 100 µM (FmlHLD [1]; [5]): 99.4 ± 1.3%
Kd (FmlHLD [2]; [6]): 2.3 µM

COc1ccccc1O[C@@H]1O[C@H](CO)[C@H](O)[C@H](O)[C@H]1O [Compound 149e]
inhibition at 1 µM (FmlHLD [1]; [7]): 9.99%
inhibition at 10 µM (FmlHLD [1]; [8]): 55.7%
inhibition at 100 µM (FmlHLD [1]; [9]): 97.2%
Kd (FmlHLD [2]; Kd): 6.5 µM

CC(=O)N[C@@H]1[C@@H](O[C@@H]2O[C@H](CO)[C@H](O)[C@H](O)[C@H]2O)[C@H](O)[C@@H](CO)O[C@@H]1O [Gal-β1-GalNAc, reference compound]
Kd (FmlHLD [2]; [6]): 248 ± 20.3 µM

CC(=O)N[C@@H]1[C@@H](O)[C@@H](O)[C@@H](CO)O[C@H]1O (stereo in doubt) [GalNAc, N-acetylgalactosamine, reference compound]
inhibition at 100 µM (FmlHLD [1]; [9]): 28.4%
inhibition at 100 µM (FmlHLD [1]; [5]): 28.5 ± 5.2%
inhibition of FmlHLD binding to ds-BSM, in words (FmlHLD [1]): capable of inhibiting FmlHLD
Kd (FmlHLD [2]; [6]): 189 ± 22.9 µM

O=[N+]([O-])c1ccccc1O[C@@H]1O[C@H](CO)[C@H](O)[C@H](O)[C@H]1O [4β (ONPG), reference compound]
Kd (FmlHLD [2]; [6]): 10.6 ± 4.6 µM

O=c1c(O[C@@H]2O[C@H](CO)[C@H](O)[C@H](O)[C@H]2O)c(-c2ccc(O)c(O)c2)oc2cc(O)cc(O)c12 [QG, reference compound]
inhibition at 100 µM (FmlHLD [1]; [9]): 14.4%
Kd (FmlHLD [2]; Kd): 391 µM

OC[C@H]1O[C@@H](Oc2cccc3cccnc23)[C@H](O)[C@@H](O)[C@H]1O [Compound 8HQG, reference compound]
inhibition at 1 µM (FmlHLD [1]; [7]): 19.2%
inhibition at 10 µM (FmlHLD [1]; [8]): 48.1%
inhibition at 100 µM (FmlHLD [1]; [9]): 95.1%
Kd (FmlHLD [2]; Kd): 7.1 µM

O=C(O)c1cccc(-c2ccccc2O[C@@H]2O[C@H](CO)[C@H](O)[C@H](O)[C@H]2O)c1 [Compound 200b]
inhibition at 1 µM (FmlHLD [1]; [7]): 12.3%
inhibition at 10 µM (FmlHLD [1]; [8]): 75.1%
inhibition at 100 µM (FmlHLD [1]; [9]): 99%
Kd (FmlHLD [2]; Kd): 2.1 µM

CC(=O)N[C@@H]1[C@@H](O[C@@H]2O[C@H](CO)[C@H](O)[C@H](O)[C@H]2O)[C@@H](O)[C@@H](CO)O[C@@H]1O [TF, Gal-β1-3-GalNAc-α, reference compound]
inhibition at 100 µM (FmlHLD [1]; [9]): 15.5%
inhibition at 100 µM (FmlHLD [1]; [5]): 15.5 ± 6.7%
inhibition of FmlHLD binding to ds-BSM, in words (FmlHLD [1]): capable of inhibiting FmlHLD
Kd (FmlHLD [2]; Kd): 248 µM

CC(=O)Nc1cccc(-c2ccccc2O[C@@H]2O[C@H](CO)[C@H](O)[C@H](O)[C@H]2NC(C)=O)c1 [AM2062, N-(2′-(((2S,3R,4R,5R,6R)-3-acetamido-4,5-dihydroxy-6-(hydroxymethyl)tetrahydro-2H-pyran-2-yl)oxy)-[1,1′-biphenyl]-3-yl)acetamide]
IC50 (FmlHLD [1]; IC50 (μM), Table 5, Gal and GalNAc inhibition of FmlH): 0.31 µM
IC50 (FmlHLD [1]; [10]): 0.623 µM
inhibition at 0.1 µM (FmlHLD [1]; [11]): 14.8%
inhibition at 1 µM (FmlHLD [1]; [7]): 67.9%
inhibition at 0.1 µM (FmlHLD [1]; [12]): 14.8%
inhibition at 1 µM (FmlHLD [1]; [13]): 67.9%

OC[C@H]1O[C@H](Oc2ccccc2-c2ccccc2)[C@H](O)[C@@H](O)[C@H]1O [Compound 113f1]
inhibition at 100 µM (FmlHLD [1]; [9]): 19.2%

Cc1cccc(O[C@@H]2O[C@H](CO)[C@H](O)[C@H](O)[C@H]2NC(=O)C(F)(F)F)c1-c1cccc(NS(C)(=O)=O)c1 [AM2129]
IC50 (FmlHLD [1]; [10]): 0.105 µM

COc1ccccc1O[C@@H]1O[C@H](CO)[C@H](O)[C@H](O)[C@H]1O [Compound 5β, 2-methoxyphenyl β-D-galactopyranoside]
PI100 (percent inhibition) (FmlHLD [1]; [14]): 97.2 ± 0.4%
inhibition at 1 µM (FmlHLD [1]; [3]): 10 ± 4.3%
inhibition at 10 µM (FmlHLD [1]; [4]): 55.7 ± 1.6%
inhibition at 100 µM (FmlHLD [1]; [5]): 97%
Kd (FmlHLD [2]; [6]): 6.5 ± 1.4 µM

OC[C@H]1O[C@@H](Oc2cccc3cccnc23)[C@H](O)[C@@H](O)[C@H]1O [Compound 20β]
PI100 (percent inhibition) (FmlHLD [1]; [14]): 95.1 ± 1.1%
inhibition at 1 µM (FmlHLD [1]; [3]): 19.2 ± 2.8%
inhibition at 10 µM (FmlHLD [1]; [4]): 48.1 ± 2%
inhibition at 100 µM (FmlHLD [1]; [5]): 95%
Kd (FmlHLD [2]; [6]): 7.1 ± 2.3 µM

COC(=O)c1cccc(-c2ccccc2O[C@@H]2O[C@H](CO)[C@H](O)[C@H](O)[C@H]2O)c1 [Compound 116f]
inhibition at 1 µM (FmlHLD [1]; [7]): 3.7%
inhibition at 10 µM (FmlHLD [1]; [8]): 22.4%
inhibition at 100 µM (FmlHLD [1]; [9]): 86.6%

Cc1cc(=O)oc2c(F)c(O[C@@H]3O[C@H](CO)[C@H](O)[C@H](O)[C@H]3O)c(F)cc12 [Compound 13β]
PI100 (percent inhibition) (FmlHLD [1]; [14]): 49.7 ± 4.5%
inhibition at 10 µM (FmlHLD [1]; [4]): 0.8 ± 3.1%
inhibition at 100 µM (FmlHLD [1]; [5]): 50%

CC(=O)N[C@H]1[C@H](Oc2ccccc2-c2cccc(C(=O)O)c2)O[C@H](CO)[C@H](O)[C@@H]1O [Compound 200b-GalNAc]
inhibition at 1 µM (FmlHLD [1]; [7]): 35.1%
inhibition at 10 µM (FmlHLD [1]; [8]): 93%
inhibition at 100 µM (FmlHLD [1]; [9]): 99.5%
Kd (FmlHLD [2]; Kd): 0.089 µM

Cc1ccc(O[C@@H]2O[C@H](CO)[C@H](O)[C@H](O)[C@H]2O)cc1 [Compound 8β, 4-methylphenyl β-D-galactopyranoside]
PI100 (percent inhibition) (FmlHLD [1]; [14]): 85.8 ± 0.7%
inhibition at 1 µM (FmlHLD [1]; [3]): 4.6 ± 7.9%
inhibition at 10 µM (FmlHLD [1]; [4]): 16.5 ± 3.3%
inhibition at 100 µM (FmlHLD [1]; [5]): 86%

Cc1cccc(O[C@@H]2O[C@H](CO)[C@H](O)[C@H](O)[C@H]2NS(C)(=O)=O)c1-c1cccc(NS(C)(=O)=O)c1 [AM2186]
IC50 (FmlHLD [1]; [10]): 3.5 µM

CC(=O)N[C@H]1[C@H](Oc2cccc3c(C)ccnc23)O[C@H](CO)[C@H](O)[C@@H]1O [AM1192, N-((2S,3R,4R,5R,6R)-4,5-dihydroxy-6-(hydroxymethyl)-2-((4-methylquinolin-8-yl)oxy)tetrahydro-2H-pyran-3-yl)acetamide]
inhibition at 1 µM (FmlHLD [1]; [7]): 16.8%
inhibition at 1 µM (FmlHLD [1]; [13]): 16.8%

COC(=O)c1cccc(-c2ccccc2O[C@H]2O[C@H](CO)[C@H](O)[C@H](O)[C@H]2O)c1 [Compound 116e]
inhibition at 100 µM (FmlHLD [1]; [9]): 13.1%

CC(=O)N[C@H]1[C@H](Oc2ccc([N+](=O)[O-])cc2)O[C@H](CO)[C@@H](O)[C@@H]1O[C@@H]1O[C@H](CO)[C@H](O)[C@H](O)[C@H]1O [Gal-b1-3-PNPGlcNAc, reference compound]
% Inhibition at [μM] [100] (FmlHLD [1]; [15]): −3.60%

Cc1c(C)c2ccc(O[C@@H]3O[C@H](CO)[C@H](O)[C@H](O)[C@H]3O)cc2oc1=O [Compound 14β]
PI100 (percent inhibition) (FmlHLD [1]; [14]): 89.2 ± 0.4%
inhibition at 1 µM (FmlHLD [1]; [3]): 10.2 ± 4.3%
inhibition at 10 µM (FmlHLD [1]; [4]): 19.8 ± 3.8%
inhibition at 100 µM (FmlHLD [1]; [5]): 89%

OC[C@H]1O[C@@H](Oc2cc3c(O)cc(O)cc3[o+]c2-c2ccc(O)cc2)[C@H](O)[C@@H](O)[C@H]1O [PelG, reference compound]
inhibition at 100 µM (FmlHLD [1]; [9]): 0.74%

OC[C@H]1O[C@@H](Oc2ccccc2)[C@H](O)[C@@H](O)[C@H]1O [Phenyl Gal, reference compound]
inhibition at 10 µM (FmlHLD [1]; [8]): 15.5%
inhibition at 100 µM (FmlHLD [1]; [9]): 76.9%

CC(=O)N[C@H]1[C@@H](Oc2ccc([N+](=O)[O-])cc2)O[C@H](CO)[C@H](O)[C@@H]1O[C@@H]1O[C@H](CO)[C@H](O)[C@H](O)[C@H]1O [Gal-b1-3-PNPGalNAc, reference compound]
% Inhibition at [μM] [100] (FmlHLD [1]; [15]): 15.28%

CNC(=O)c1cccc(-c2ccccc2O[C@@H]2O[C@H](CO)[C@H](O)[C@H](O)[C@H]2O)c1 [AM2042, N-methyl-2′-(((2S,3R,4S,5R,6R)-3,4,5-trihydroxy-6-(hydroxymethyl)tetrahydro-2H-pyran-2-yl)oxy)-[1,1′-biphenyl]-3-carboxamide]
inhibition at 0.1 µM (FmlHLD [1]; [11]): 0%
inhibition at 1 µM (FmlHLD [1]; [7]): 16.6%
inhibition at 0.1 µM (FmlHLD [1]; [12]): 0%
inhibition at 1 µM (FmlHLD [1]; [13]): 16.6%

O=c1c(O[C@@H]2O[C@H](CO)[C@H](O)[C@H](O)[C@H]2O)c(-c2cc(O)c(O)c(O)c2)oc2cc(O)cc(O)c12 [MyrG, reference compound]
inhibition at 100 µM (FmlHLD [1]; [9]): 10.8%

O=C(O)c1cccc(-c2ccccc2O[C@H]2O[C@H](CO)[C@H](O)[C@H](O)[C@H]2O)c1 [Compound 200a]
inhibition at 100 µM (FmlHLD [1]; [9]): 26.2%
